7 molecules from ChEMBL document CHEMBL4613209, “Quinolone hybrids and their anti-cancer activities: An overview” (Eur J Med Chem, 2019) can be followed below.

A value given as a limit tells only on which side of the number the result lay.

The test system of one test is A549. Description: Cytotoxicity against human A549 cells assessed as reduction in cell viability after 72 hrs by MTT assay. As to conditions: A549, 72 h. It is filed as functional, cell-based. (In general: Tetrazolium dyes change colour on reduction, which living cells bring about.)
In the case of `O=C(O)c1cn(C2CC2)c2cc(N3CCN(C/C(=N/O)c4ccco4)CC3)c(F)cc2c1=O`, the 50% inhibitory concentration (IC50) was greater than 100 µM.

As to `O=C(O)c1cn(C2CC2)c2cc(N3CCN(C/C(=N/OCc4ccc(Cl)cc4)c4cccs4)CC3)c(F)cc2c1=O`, the IC50 was no more than 10 µM.

In the case of `CO/N=C(/CN1CCN(c2cc3c(cc2F)c(=O)c(C(=O)O)cn3C2CC2)CC1)c1ccco1`, the half-inhibitory concentration (IC50) is greater than 100 µM.

In the case of `N=c1c(-c2nn3c(-c4cn(C5CC5)c5cc(N6CCNCC6)c(F)cc5c4=O)nnc3s2)cn(C2CC2)c2cc(N3CCNCC3)c(F)cc12`, the IC50 was no more than 10 µM.

Regarding `CCn1cc(C(=O)O)c(=O)c2cc(F)c(N3CCN(C/C(=N/O)c4ccco4)CC3)cc21`, the IC50 was greater than 100 µM.

With `CCn1cc(C(=O)O)c(=O)c2cc(F)c(N3CCN(C/C(=N/OC)c4ccco4)CC3)cc21`, the IC50 was greater than 100 µM.

For `CCn1cc(C(=O)O)c(=O)c2cc(F)c(N3CCN(C/C(=N/OCc4ccccc4)c4ccco4)CC3)cc21`, the half-inhibitory concentration (IC50) was no more than 10 µM.

Another test relates to MCF7. Description: Cytotoxicity against human MCF7 cells assessed as reduction in cell viability after 72 hrs by MTT assay. The test is classed as functional, cell-based. To be noted: MCF7, 72 h.
On to `O=C(O)c1cn(C2CC2)c2cc(N3CCN(C/C(=N/O)c4ccco4)CC3)c(F)cc2c1=O`, for which the half-inhibitory concentration (IC50) was greater than 100 µM.

For the molecule `O=C(O)c1cn(C2CC2)c2cc(N3CCN(C/C(=N/OCc4ccc(Cl)cc4)c4cccs4)CC3)c(F)cc2c1=O`, the IC50 was no more than 10 µM.

Consider `CO/N=C(/CN1CCN(c2cc3c(cc2F)c(=O)c(C(=O)O)cn3C2CC2)CC1)c1ccco1`, for which the IC50 was greater than 100 µM.

In the case of `N=c1c(-c2nn3c(-c4cn(C5CC5)c5cc(N6CCNCC6)c(F)cc5c4=O)nnc3s2)cn(C2CC2)c2cc(N3CCNCC3)c(F)cc12`, the IC50 is no more than 10 µM.

Regarding `CCn1cc(C(=O)O)c(=O)c2cc(F)c(N3CCN(C/C(=N/O)c4ccco4)CC3)cc21`, the half-inhibitory concentration (IC50) is greater than 100 µM.

Take `CCn1cc(C(=O)O)c(=O)c2cc(F)c(N3CCN(C/C(=N/OC)c4ccco4)CC3)cc21`: the IC50 was greater than 100 µM.

For `CCn1cc(C(=O)O)c(=O)c2cc(F)c(N3CCN(C/C(=N/OCc4ccccc4)c4ccco4)CC3)cc21`, the IC50 was no more than 10 µM.

The subject of a further test is KB. Kind of test: Cytotoxicity against human KB cells assessed as reduction in cell viability after 72 hrs by MTT assay. It is filed as functional, cell-based.
Details: not given
On to `O=C(O)c1cn(C2CC2)c2cc(N3CCN(C/C(=N/O)c4ccco4)CC3)c(F)cc2c1=O`, for which the IC50 was greater than 100 µM.

For `O=C(O)c1cn(C2CC2)c2cc(N3CCN(C/C(=N/OCc4ccc(Cl)cc4)c4cccs4)CC3)c(F)cc2c1=O`, the concentration for half-maximal inhibition (IC50) was no more than 10 µM.

Regarding `CO/N=C(/CN1CCN(c2cc3c(cc2F)c(=O)c(C(=O)O)cn3C2CC2)CC1)c1ccco1`, the IC50 was greater than 100 µM.

As to `N=c1c(-c2nn3c(-c4cn(C5CC5)c5cc(N6CCNCC6)c(F)cc5c4=O)nnc3s2)cn(C2CC2)c2cc(N3CCNCC3)c(F)cc12`, the 50% inhibitory concentration (IC50) is no more than 10 µM.

On to `CCn1cc(C(=O)O)c(=O)c2cc(F)c(N3CCN(C/C(=N/O)c4ccco4)CC3)cc21`, for which the half-maximal inhibitory concentration (IC50) is greater than 100 µM.

As for `CCn1cc(C(=O)O)c(=O)c2cc(F)c(N3CCN(C/C(=N/OC)c4ccco4)CC3)cc21`, the 50% inhibitory concentration (IC50) was greater than 100 µM.

Take `CCn1cc(C(=O)O)c(=O)c2cc(F)c(N3CCN(C/C(=N/OCc4ccccc4)c4ccco4)CC3)cc21`: the concentration for half-maximal inhibition (IC50) was no more than 10 µM.

The subject of a further test is SK-MEL3. Description: Cytotoxicity against human SK-MEL-3 cells assessed as reduction in cell viability after 72 hrs by MTT assay. To be noted: SK-MEL3, 72 h. It is filed as functional, cell-based.
With `O=C(O)c1cn(C2CC2)c2cc(N3CCN(C/C(=N/O)c4ccco4)CC3)c(F)cc2c1=O`, the 50% inhibitory concentration (IC50) is greater than 100 µM.

For the molecule `O=C(O)c1cn(C2CC2)c2cc(N3CCN(C/C(=N/OCc4ccc(Cl)cc4)c4cccs4)CC3)c(F)cc2c1=O`, the half-maximal inhibitory concentration (IC50) is no more than 10 µM.

For the molecule `CO/N=C(/CN1CCN(c2cc3c(cc2F)c(=O)c(C(=O)O)cn3C2CC2)CC1)c1ccco1`, the 50% inhibitory concentration (IC50) is greater than 100 µM.

On to `N=c1c(-c2nn3c(-c4cn(C5CC5)c5cc(N6CCNCC6)c(F)cc5c4=O)nnc3s2)cn(C2CC2)c2cc(N3CCNCC3)c(F)cc12`, for which the IC50 was no more than 10 µM.

Consider `CCn1cc(C(=O)O)c(=O)c2cc(F)c(N3CCN(C/C(=N/O)c4ccco4)CC3)cc21`, for which the IC50 is greater than 100 µM.

For `CCn1cc(C(=O)O)c(=O)c2cc(F)c(N3CCN(C/C(=N/OC)c4ccco4)CC3)cc21`, the IC50 was greater than 100 µM.

With `CCn1cc(C(=O)O)c(=O)c2cc(F)c(N3CCN(C/C(=N/OCc4ccccc4)c4ccco4)CC3)cc21`, the 50% inhibitory concentration (IC50) was no more than 10 µM.

In another test the test system is A 172. Kind of test: Cytotoxicity against human A172 cells assessed as reduction in cell viability after 72 hrs by MTT assay. The test is classed as functional, cell-based. To be noted: A 172, 72 h.
In the case of `O=C(O)c1cn(C2CC2)c2cc(N3CCN(C/C(=N/O)c4ccco4)CC3)c(F)cc2c1=O`, the IC50 is greater than 100 µM.

For `O=C(O)c1cn(C2CC2)c2cc(N3CCN(C/C(=N/OCc4ccc(Cl)cc4)c4cccs4)CC3)c(F)cc2c1=O`, the 50% inhibitory concentration (IC50) was no more than 10 µM.

Regarding `CO/N=C(/CN1CCN(c2cc3c(cc2F)c(=O)c(C(=O)O)cn3C2CC2)CC1)c1ccco1`, the IC50 is greater than 100 µM.

As to `N=c1c(-c2nn3c(-c4cn(C5CC5)c5cc(N6CCNCC6)c(F)cc5c4=O)nnc3s2)cn(C2CC2)c2cc(N3CCNCC3)c(F)cc12`, the IC50 was no more than 10 µM.

With `CCn1cc(C(=O)O)c(=O)c2cc(F)c(N3CCN(C/C(=N/O)c4ccco4)CC3)cc21`, the IC50 is greater than 100 µM.

For the molecule `CCn1cc(C(=O)O)c(=O)c2cc(F)c(N3CCN(C/C(=N/OC)c4ccco4)CC3)cc21`, the IC50 was greater than 100 µM.

Take `CCn1cc(C(=O)O)c(=O)c2cc(F)c(N3CCN(C/C(=N/OCc4ccccc4)c4ccco4)CC3)cc21`: the IC50 is no more than 10 µM.

For another test, the system named is A2780. Description: Cytotoxicity against human A2780 cells assessed as reduction in cell viability after 72 hrs by MTT assay. It is filed as functional, cell-based. As to conditions: A2780, 72 h.
In the case of `O=C(O)c1cn(C2CC2)c2cc(N3CCN(C/C(=N/O)c4ccco4)CC3)c(F)cc2c1=O`, the half-inhibitory concentration (IC50) was greater than 100 µM.

`O=C(O)c1cn(C2CC2)c2cc(N3CCN(C/C(=N/OCc4ccc(Cl)cc4)c4cccs4)CC3)c(F)cc2c1=O`: the IC50 is no more than 10 µM.

As to `CO/N=C(/CN1CCN(c2cc3c(cc2F)c(=O)c(C(=O)O)cn3C2CC2)CC1)c1ccco1`, the IC50 was greater than 100 µM.

In the case of `N=c1c(-c2nn3c(-c4cn(C5CC5)c5cc(N6CCNCC6)c(F)cc5c4=O)nnc3s2)cn(C2CC2)c2cc(N3CCNCC3)c(F)cc12`, the concentration for half-maximal inhibition (IC50) is no more than 10 µM.

As for `CCn1cc(C(=O)O)c(=O)c2cc(F)c(N3CCN(C/C(=N/O)c4ccco4)CC3)cc21`, the IC50 was greater than 100 µM.

For the molecule `CCn1cc(C(=O)O)c(=O)c2cc(F)c(N3CCN(C/C(=N/OC)c4ccco4)CC3)cc21`, the IC50 was greater than 100 µM.

In the case of `CCn1cc(C(=O)O)c(=O)c2cc(F)c(N3CCN(C/C(=N/OCc4ccccc4)c4ccco4)CC3)cc21`, the IC50 is no more than 10 µM.

The next test relates to ACHN. Kind of test: Cytotoxicity against human ACHN cells assessed as reduction in cell viability after 72 hrs by MTT assay.
Details: not given
It is filed as functional, cell-based.
For the molecule `O=C(O)c1cn(C2CC2)c2cc(N3CCN(C/C(=N/O)c4ccco4)CC3)c(F)cc2c1=O`, the half-inhibitory concentration (IC50) is greater than 100 µM.

With `O=C(O)c1cn(C2CC2)c2cc(N3CCN(C/C(=N/OCc4ccc(Cl)cc4)c4cccs4)CC3)c(F)cc2c1=O`, the concentration for half-maximal inhibition (IC50) is no more than 10 µM.

As for `CO/N=C(/CN1CCN(c2cc3c(cc2F)c(=O)c(C(=O)O)cn3C2CC2)CC1)c1ccco1`, the IC50 was greater than 100 µM.

In the case of `N=c1c(-c2nn3c(-c4cn(C5CC5)c5cc(N6CCNCC6)c(F)cc5c4=O)nnc3s2)cn(C2CC2)c2cc(N3CCNCC3)c(F)cc12`, the concentration for half-maximal inhibition (IC50) was no more than 10 µM.

As to `CCn1cc(C(=O)O)c(=O)c2cc(F)c(N3CCN(C/C(=N/O)c4ccco4)CC3)cc21`, the IC50 was greater than 100 µM.

Consider `CCn1cc(C(=O)O)c(=O)c2cc(F)c(N3CCN(C/C(=N/OC)c4ccco4)CC3)cc21`, for which the IC50 is greater than 100 µM.

As for `CCn1cc(C(=O)O)c(=O)c2cc(F)c(N3CCN(C/C(=N/OCc4ccccc4)c4ccco4)CC3)cc21`, the IC50 was no more than 10 µM.

The IC50 is the concentration that inhibits the measured activity by half.
